Values quoted from earlier work as cited in article PMC12080252, “Daphnia magna as an Alternative Model for (Simultaneous) Bioaccumulation and Chronic Toxicity Assessment—Controlled Exposure Study Indicates High Hazard of Heterocyclic PAHs” (Environmental Science & Technology, 2025).
Values joined by “and” are separate entries in the source; they are usually repeats but may differ in a detail not shown here. Identical values can stand only once. Like-named read-outs stand apart in the source and are kept apart here.

How the values were obtained:
[1] = system: D. magna or D. pulex; conditions: cited from earlier work; for BCF (M of several values): ref SI refs 4, 5
[2] = system: aryl hydrocarbon receptor (AhR); conditions: cited from earlier work
[3] = system: fish; conditions: cited from earlier work; for half-life / log BCFL5% / log k2: fish, Table S10, ref SI ref 23
[4] = system: D. magna; conditions: Table S1; footnote not given; cited from earlier work
[5] = Table S10; ref SI ref 23 (UK Environment Agency Report); cited from earlier work
[6] = D. magna or D. pulex, ref SI refs 8, 10

c1ccc2c(c1)ccc1ccccc12 [phenanthrene]
BCF (M of several values) ([1]; D. magna or D. pulex): 325 | log k2 [1, 6]: -0.27 h-1 | half-life ([1]; in vivo): 1.29 h | AhR-mediated toxicity [2]: do not trigger AhR-mediated toxicity | accumulation in fish versus invertebrates (Figure 3B) ([3]; in vivo): accumulated in fish but not in Daphnia and H. azteca

c1ccc2ccccc2c1 [naphthalene]
half-life [1, 6]: 0.42 h | log k2 ([1]; in vivo): 0.22 h-1 | AhR-mediated toxicity [2]: do not trigger AhR-mediated toxicity

c1ccc2cc3ccccc3cc2c1 [anthracene]
BCF (M of several values) ([1]; D. magna or D. pulex): 944 | half-life [1, 6]: 1.18 h | log k2 [1, 6]: -0.23 h-1 | AhR-mediated toxicity [2]: do not trigger AhR-mediated toxicity

c1ccc2c(c1)sc1ccccc12 [dibenzothiophene]
bioaccumulation in fish [3]: high bioaccumulation in fish | lowest PNEC* [4]: 0.24 µg/L

c1ccc2c(c1)Cc1ccccc1S2 [thioxanthene]
lowest PNEC* [4]: 0.32 µg/L

CC1(C)[C@H](C(=O)OCc2cccc(Oc3ccccc3)c2)[C@@H]1C=C(Cl)Cl [cis-Permethrin]
log KOW [5]: 7.43 | half-life [3]: 36.97 h | log BCFL5% [3]: 2.45 | log k2 [3]: -1.73 h-1

c1ccc2nc3ccc4ccccc4c3cc2c1 [benz(a)acridine]
half-life [1, 6]: 1.2 h | log k2 [1, 6]: -0.24 h-1 | lowest PNEC* [4]: 0.016 µg/L

Brc1cc(Br)c(-c2c(Br)cc(Br)cc2Br)c(Br)c1 [2,2',4,4',6,6'-hexa bromobiphenyl]
log KOW [5]: 7.20 | half-life [3]: 2343.03 h | log BCFL5% [3]: 4.55 | log k2 [3]: -3.53 h-1

Clc1cc2oc3cc(Cl)c(Cl)cc3c2cc1Cl [2,3,7,8-Tetrachlorodibenzo furan]
log KOW [5]: 6.53 | half-life [3]: 57.36 h | log BCFL5% [3]: 2.89 | log k2 [3]: -1.92 h-1

Clc1cc2c(cc1Cl)Oc1c(cc(Cl)c(Cl)c1Cl)O2 [1,2,3,7,8-Pentachlorodibenzo-p-dioxin]
log KOW [5]: 6.64 | half-life [3]: 554.52 h | log BCFL5% [3]: 3.97 | log k2 [3]: -2.90 h-1

CCCCCCCC(CCCC)c1ccc(S(=O)(=O)O)cc1 (stereo not drawn) [C-12-5-LAS]
log KOW [5]: 4.71 | half-life [3]: 13.86 h | log BCFL5% [3]: 1.00 | log k2 [3]: -1.30 h-1

CCCCCCCCCCC(C)c1ccc(S(=O)(=O)O)cc1 (stereo not drawn) [C-12-2-LAS]
log KOW [5]: 4.71 | half-life [3]: 23.77 h | log BCFL5% [3]: 2.16 | log k2 [3]: -1.54 h-1

CC(C)OC(=O)C(C(=O)OC(C)C)=C1SCCS1 [Bis(1-methylethyl)ester, 1,3-dithiolan-2-ylidene propanedioic acid]
log KOW [5]: 2.88 | half-life [3]: 3.65 h and 2.17 h | log BCFL5% [3]: 1.45 and 1.59 and 1.65 | log k2 [3]: -0.72 h-1 and -0.49 h-1

c1ccc2nc3ccccc3cc2c1 [acridine]
half-life [1, 6]: 0.32 h | log k2 [1, 6]: 0.33 h-1 | AhR agonism [2]: weak to moderate aryl hydrocarbon receptor (AhR) agonists

Clc1cc2c(c(Cl)c1Cl)Oc1cc(Cl)c(Cl)c(Cl)c1O2 [1,2,3,6,7,8-Hexachloro dibenzo-p-dioxin]
log KOW [5]: 7.30 | half-life [3]: 332.71 h | log BCFL5% [3]: 3.64 | log k2 [3]: -2.68 h-1

c1ccc2c(c1)Cc1ccccc1-2 [fluorene]
AhR-mediated toxicity [2]: do not trigger AhR-mediated toxicity

COP(=S)(OC)Oc1c(Cl)cc(C)cc1Cl [O-(2,6-Dichloro-4-methylphenyl) O,O-dimethyl ester, Phosphorothioic acid]
log KOW [5]: 4.56 | half-life [3]: 17.33 h | log BCFL5% [3]: 2.36 | log k2 [3]: -1.40 h-1

CC(C)C(C(=O)OC(C#N)c1cccc(Oc2ccccc2)c1)c1ccc(Cl)cc1 (stereo not drawn) [Cyano(3-phenoxyphenyl)methyl ester, 4-chloro-alpha-(1-methylethyl) benzeneacetic acid]
log KOW [5]: 6.20 | half-life [3]: 75.62 h | log BCFL5% [3]: 2.64 | log k2 [3]: -2.04 h-1

c1ccc2c(c1)oc1ccccc12 [dibenzofuran]
AhR agonism [2]: weak to moderate aryl hydrocarbon receptor (AhR) agonists

c1ccc2c(c1)Cc1ccccc1O2 [xanthene]
AhR agonism [2]: weak to moderate aryl hydrocarbon receptor (AhR) agonists | bioaccumulation in fish ([3]; in vivo): high bioaccumulation in fish

CC(C)Oc1cccc(NC(=O)c2ccccc2C(F)(F)F)c1 [N-[3-(1-Methylethoxy)phenyl]-2-(trifluoromethyl) benzamide]
log KOW [5]: 3.70 | half-life [3]: 5.78 h | log BCFL5% [3]: 1.32 | log k2 [3]: -0.92 h-1

COP(=S)(OC)Oc1ccc(Cl)cc1C#N [Methyl isocyanothion]
log KOW [5]: 3.58 | half-life [3]: 14.10 h | log BCFL5% [3]: 2.09 | log k2 [3]: -1.31 h-1

ClC1C(Cl)C(Cl)C(Cl)C(Cl)C1Cl (stereo not drawn) [Cyclohexane, 1,2,3,4,5,6-hexachloro-, (1a,2a,3B,4a,5a,6B)-]
log KOW [5]: 3.72 | half-life [3]: 12.60 h | log BCFL5% [3]: 2.81 | log k2 [3]: -1.26 h-1

Clc1cc2c(oc3c(Cl)c(Cl)c(Cl)c(Cl)c32)c(Cl)c1Cl [1,2,3,4,6,7,8-Heptachloro dibenzofuran]
log KOW [5]: 7.40 | half-life [3]: 127.97 h | log BCFL5% [3]: 3.16 | log k2 [3]: -2.27 h-1
